Ends that are not written are not given here.
What was measured:
Experiment in all cases: BRET assay using TRUPATH biosensors, Gi activation of ADGRF1
Format in all cases: cell-based
ADGRF1 [1] = target: T1, ADGRF1 (Homo sapiens, UniProt Q5T601, L769A); conditions: ADGRF1 L769^5.61bA
T1 construct: Flag (N); expressed in transfected cells; host or cells: HEK293F
T1 sequence (Q5T601 20-910 L769A): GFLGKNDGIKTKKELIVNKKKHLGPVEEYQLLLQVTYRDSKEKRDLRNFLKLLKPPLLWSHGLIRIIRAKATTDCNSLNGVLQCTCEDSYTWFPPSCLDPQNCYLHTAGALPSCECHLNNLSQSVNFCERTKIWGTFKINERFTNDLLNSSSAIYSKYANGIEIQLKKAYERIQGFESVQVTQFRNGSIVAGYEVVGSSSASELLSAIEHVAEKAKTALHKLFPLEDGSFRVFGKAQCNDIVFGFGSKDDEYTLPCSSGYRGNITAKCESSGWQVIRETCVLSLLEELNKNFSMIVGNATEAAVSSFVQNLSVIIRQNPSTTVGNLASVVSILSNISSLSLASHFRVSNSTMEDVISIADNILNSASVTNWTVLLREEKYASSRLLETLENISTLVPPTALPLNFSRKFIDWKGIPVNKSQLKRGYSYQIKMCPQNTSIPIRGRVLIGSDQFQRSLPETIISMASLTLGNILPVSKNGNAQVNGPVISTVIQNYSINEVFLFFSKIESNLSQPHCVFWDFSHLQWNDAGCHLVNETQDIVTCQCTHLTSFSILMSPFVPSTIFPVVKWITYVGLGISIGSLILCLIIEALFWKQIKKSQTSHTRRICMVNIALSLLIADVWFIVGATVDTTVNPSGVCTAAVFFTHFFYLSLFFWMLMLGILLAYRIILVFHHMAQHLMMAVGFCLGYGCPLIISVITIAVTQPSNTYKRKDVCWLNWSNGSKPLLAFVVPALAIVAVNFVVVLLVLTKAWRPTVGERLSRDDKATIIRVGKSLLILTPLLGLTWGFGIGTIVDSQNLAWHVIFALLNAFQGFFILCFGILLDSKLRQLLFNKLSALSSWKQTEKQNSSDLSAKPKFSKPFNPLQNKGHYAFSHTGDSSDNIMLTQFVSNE
How it was run: (§1)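 HEK293F cells transiently co-transfected with wild-type or mutant receptor, Gα-RLuc8 (GαsS for Gs, Gαi1 for Gi), Gβ3 and Gγ9-GFP2 at 2:1:1:1. After 30 min at 37 °C and coelenterazine 400a, cells stimulated with synthetic stalk peptide. BRET = GFP2/RLuc8 emission, last of five readings.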

ADGRF1 [2] = target: T2, ADGRF1 (Homo sapiens, UniProt Q5T601, Q830A); conditions: ADGRF1 Q830^7.49bA
T2 construct: Flag (N); expressed in transfected cells; host or cells: HEK293F
T2 sequence (Q5T601 20-910 Q830A): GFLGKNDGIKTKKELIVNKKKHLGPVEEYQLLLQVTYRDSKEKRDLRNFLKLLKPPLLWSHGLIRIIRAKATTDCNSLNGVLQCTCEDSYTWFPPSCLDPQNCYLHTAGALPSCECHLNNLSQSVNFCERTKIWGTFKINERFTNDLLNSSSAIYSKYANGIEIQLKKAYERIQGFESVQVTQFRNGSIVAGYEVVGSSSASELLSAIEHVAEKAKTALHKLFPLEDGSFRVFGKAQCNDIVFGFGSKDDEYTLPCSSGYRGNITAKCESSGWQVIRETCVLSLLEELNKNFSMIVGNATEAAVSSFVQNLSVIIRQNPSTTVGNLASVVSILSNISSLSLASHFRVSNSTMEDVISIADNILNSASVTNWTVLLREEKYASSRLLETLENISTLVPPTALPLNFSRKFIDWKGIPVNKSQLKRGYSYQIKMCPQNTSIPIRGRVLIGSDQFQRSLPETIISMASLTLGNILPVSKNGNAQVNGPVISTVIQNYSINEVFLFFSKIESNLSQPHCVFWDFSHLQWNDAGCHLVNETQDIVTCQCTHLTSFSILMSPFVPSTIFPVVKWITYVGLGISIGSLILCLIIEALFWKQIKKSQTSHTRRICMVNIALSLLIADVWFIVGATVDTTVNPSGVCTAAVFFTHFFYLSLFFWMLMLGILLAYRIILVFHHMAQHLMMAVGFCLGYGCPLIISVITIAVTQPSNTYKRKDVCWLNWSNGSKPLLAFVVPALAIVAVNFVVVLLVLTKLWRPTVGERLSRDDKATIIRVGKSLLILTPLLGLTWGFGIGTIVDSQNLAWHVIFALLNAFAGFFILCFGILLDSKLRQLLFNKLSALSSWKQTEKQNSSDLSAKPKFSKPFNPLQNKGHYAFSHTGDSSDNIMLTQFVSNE
How it was run: as §1

ADGRF1 [3] = target: T3, ADGRF1 (Homo sapiens, UniProt Q5T601, A683G); conditions: ADGRF1 A683^3.55bG
T3 construct: Flag (N); expressed in transfected cells; host or cells: HEK293F
T3 sequence (Q5T601 20-910 A683G): as the sequence (Q5T601 20-910 Q830A) above, with A664G, A811Q counted along it
How it was run: as §1

ADGRF1 [4] = target: T4, ADGRF1 (Homo sapiens, UniProt Q5T601, G801A); conditions: ADGRF1 G801^6.50bA
T4 construct: Flag (N); expressed in transfected cells; host or cells: HEK293F
T4 sequence (Q5T601 20-910 G801A): as the sequence (Q5T601 20-910 Q830A) above, with G782A, A811Q counted along it
How it was run: as §1

ADGRF1 [5] = target: T5, ADGRF1 (Homo sapiens, UniProt Q5T601, T810A); conditions: ADGRF1 T810^6.59bA
T5 construct: Flag (N); expressed in transfected cells; host or cells: HEK293F
T5 sequence (Q5T601 20-910 T810A): as the sequence (Q5T601 20-910 Q830A) above, with T791A, A811Q counted along it
How it was run: as §1

ADGRF1 [6] = target: T6, ADGRF1 (Homo sapiens, UniProt Q5T601, L682A); conditions: ADGRF1 L682^3.54bA
T6 construct: Flag (N); expressed in transfected cells; host or cells: HEK293F
T6 sequence (Q5T601 20-910 L682A): as the sequence (Q5T601 20-910 Q830A) above, with L663A, A811Q counted along it
How it was run: as §1

ADGRF1 [7] = target: T7, ADGRF1 (Homo sapiens, UniProt Q5T601, L800A); conditions: ADGRF1 L800^6.49bA
T7 construct: Flag (N); expressed in transfected cells; host or cells: HEK293F
T7 sequence (Q5T601 20-910 L800A): as the sequence (Q5T601 20-910 Q830A) above, with L781A, A811Q counted along it
How it was run: as §1

ADGRF1 [8] = target: T8, ADGRF1 (Homo sapiens, UniProt Q5T601, L593A); conditions: ADGRF1 L593^1.47bA
T8 construct: Flag (N); expressed in transfected cells; host or cells: HEK293F
T8 sequence (Q5T601 20-910 L593A): as the sequence (Q5T601 20-910 Q830A) above, with L574A, A811Q counted along it
How it was run: as §1

ADGRF1 [9] = target: T9, ADGRF1 (Homo sapiens, UniProt Q5T601, G702Y); conditions: ADGRF1 G702^4.45bY, n = 3
T9 construct: Flag (N); expressed in transfected cells; host or cells: HEK293F
T9 sequence (Q5T601 20-910 G702Y): as the sequence (Q5T601 20-910 Q830A) above, with G683Y, A811Q counted along it
How it was run: as §1

ADGRF1 [10] = target: T10, ADGRF1 (Homo sapiens, UniProt Q5T601, L752A); conditions: ADGRF1 L752^5.44bA
T10 construct: Flag (N); expressed in transfected cells; host or cells: HEK293F
T10 sequence (Q5T601 20-910 L752A): as the sequence (Q5T601 20-910 Q830A) above, with L733A, A811Q counted along it
How it was run: as §1

[11] = n = 3, read-out: pEC50 (mean ± s.e.m.) (converted)

Emax (mean ± s.e.m.) (ADGRF1 [1]; n = 3): 102 ± 12 % of WT
EC50 (ADGRF1 [1]; [11]): 0.302 µM
Emax (mean ± s.e.m.) (ADGRF1 [2]; n = 3): 124 ± 15 % of WT
EC50 (ADGRF1 [2]; [11]): 0.851 µM
Emax (mean ± s.e.m.) (ADGRF1 [3]; n = 3): 111 ± 13 % of WT
EC50 (ADGRF1 [3]; [11]): 0.339 µM
Emax (mean ± s.e.m.) (ADGRF1 [4]; n = 3): 127 ± 13 % of WT
EC50 (ADGRF1 [4]; [11]): 0.347 µM
Emax (mean ± s.e.m.) (ADGRF1 [5]; n = 3): 81 ± 12 % of WT
EC50 (ADGRF1 [5]; [11]): 0.562 µM
Emax (mean ± s.e.m.) (ADGRF1 [6]; n = 3): 79 ± 12 % of WT
EC50 (ADGRF1 [6]; [11]): 0.269 µM
Emax (mean ± s.e.m.) (ADGRF1 [7]; n = 3): 105 ± 8 % of WT
EC50 (ADGRF1 [7]; [11]): 0.257 µM
Emax (mean ± s.e.m.) (ADGRF1 [8]; n = 3): 106 ± 11 % of WT
EC50 (ADGRF1 [8]; [11]): 0.562 µM
EC50 (ADGRF1 [9]): 1.17 µM
Emax (mean ± s.e.m.) (ADGRF1 [9]): 94 ± 16 % of WT
Emax (mean ± s.e.m.) (ADGRF1 [10]; n = 3): 90 ± 15 % of WT
EC50 (ADGRF1 [10]; [11]): 0.513 µM
Sequence: TSFSILMSPFVP [pF1]
